Laboratory results from patent US12377176B2, “Cancer diagnostic imaging agents” (Technische Universität München, priority 2019, dated 2025).
Values joined by “and” are separate entries in the source; they are usually repeats but may differ in a detail not shown here. Equal values may be shown once. Marks after values point to notes of the source that are not given here.

Experiment: In vivo distribution of rhPSMA-7 isomers after rhPSMA7-rac: radio-HPLC and radio-TLC of blood, organ and urine samples
Design: species or system mice
Experimental: In order to quantify the relative uptake of each isomer (rhPSMA-7.1-7.4), a tumor-bearing male CB-17-SCID mouse was injected with the racemic mixture of rhPSMA-7 (180-280 MBq, SA=247-349 GBq/μmol, produced at the Klinikum rechts der Isar in a fully automated procedure). The animal was left under anesthesia for 30 min and sacrificed. Urine, blood, liver, kidneys and tumor were collected and processed to the hereafter described procedures. The urine sample was centrifuged for 5 min at 9000 rpm to yield a clear solution and directly subjected to radio-HPLC analysis. Blood was diluted to 1 mL with H2O and centrifuged twice at 13000 g for 5 min. The supernatant was collected and loaded on a Strata X cartridge (33 μm Polymeric Reversed Phase 500 mg, pre-conditioned with 5 mL MeOH, followed by 5 mL H2O). After washing with 5 mL H2O, the cartridge was eluted with a 6:4 mixture (v/v) of MeCN in H2O, supplemented with 1% TFA. The eluate was diluted with water and analysed by radio-HPLC. Tumour, kidneys and liver were homogenised using either a Potter-Elvehjem tissue grinder (Kontes Glass Co, Vineland, USA) or a MM-400 ball mill (Retsch GmbH, Haan, Germany).
Tumour and kidneys were separately homogenised in the tissue homogeniser with 1 mL of extraction buffer (850 μL 1 M HEPES pH7.4, 100 μL20 mM PMPA and 100 μL 1M NaCl) for 30 min. The resulting homogenate was collected and centrifuged at 13000 g for 5 min. Subsequently the supernatant was collected, centrifuged again (13000 g, 5 min) and loaded on a Strata X cartridge (33 μm Polymeric Reversed Phase 500 mg, pre-conditioned with 5 mL MeOH, followed by 5 mL H2O). After washing with 5 mL H2O, the cartridge was eluted with a 6:4 mixture (v/v) of MeCN in H2O, supplemented with 1% TFA. The eluate of each organ was diluted with water and analysed by radio-HPLC.
The organs (tumour, kidney, liver) were separately homogenised in a 2 mL tube together with 3 grinding balls (3 mm diameter) and 1 mL of extraction buffer (850 μL 1 M HEPES pH7.4, 100 μL 20 mM PMPA and 100 μL 1M NaCl) for 10 min at 30 Hz. The homogenate was centrifuged at 13000 g for 5 min and the supernatant was collected. Subsequently, the pellet was suspended in 1 mL of extraction buffer and homogenized again with the ball mill for 10 min at 30 Hz. After centrifugation (13000 g, 5 min), both supernatants were combined and loaded on a Strata X cartridge (33 μm Polymeric Reversed Phase 500 mg, pre-conditioned with 5 mL MeOH, followed by 5 mL H2O). After washing with 5 mL H2O, the cartridge was eluted with a 6:4 mixture (v/v) of MeCN in H2O, supplemented with 1% TFA. The eluate of each organ was diluted with water and analysed by radio-HPLC. […] Finally the ratios of the individual isomers were determined from the HPLC profiles of the extracted samples and compared to the ratios of the isomers from the quality control of the racemic mixture of rhPSMA-7. The decay corrected extraction- and cartridge loading-efficiency, as well as the overall extracted activity of the examined samples are given in table 2. The cartridge elution-efficiency was >99% for all experiments.
Radio-TLC Analysis was carried out a) on urine samples by directly subjecting a small volume onto a TLC strip, b) by analysis of a small volume of the non-immobilized activity during the SPE process (the ‘breakthrough fraction’), and c) by analysis of a small volume of the cartridge eluates.

[1] = Phosphoimager, Blood, 30 min p.i.
[2] = Phosphoimager, Kidney, 30 min p.i.
[3] = Phosphoimager, Tumor, 30 min p.i.
[4] = Phosphoimager, Urine, 30 min p.i., listed as [^18F]rhPSMA7-rac
[5] = TLC Scanner, Kidney, tumor bearing mice 30 min p.i., listed as [^18F]rhPSMA7-rac

## [^19F][^natGa]D/L-Dap-R/S-DOTAGA-rhPSMA7 [rhPSMA7-rac]
[1]
  Intact tracer: 96.80^ %
  ^18F-Fluoride: 3.20^ %
[2]
  Intact tracer: 96.48^ %
  ^18F-Fluoride: 3.52^ %
Phosphoimager, Liver, 30 min p.i., listed as [^18F]rhPSMA7-rac
  Intact tracer: 93.92^# % and 74.15^# %
[3]
  Intact tracer: 96.47^ %
  ^18F-Fluoride: 4.15^ %
[4]
  Intact tracer: 98.55^ % and 95.85^ %
  ^18F-Fluoride: 1.55^ % and 4.15^ %
[5]
  Intact tracer: 94.04% and 94.58%
  ^18F-Fluoride: 5.96% and 5.42%
TLC Scanner, Urine, tumor bearing mice 30 min p.i., listed as [^18F]rhPSMA7-rac
  Intact tracer: 82.51% and 96.2%
